Assay results reported in the NIST ThermoML archive (doi:10.1016/j.fluid.2017.12.001).
Numbers after ± are expanded uncertainties.

How the values were obtained:
[1] = xn = mol fraction of the nth substance listed; conditions: 100.9 kPa, Liquid, Concentric cylinders viscometry, x2 = 0
[2] = 101.33 kPa, Liquid; for viscosity: Concentric cylinders viscometry; for mass density: Vibrating tube method; for speed of sound: Single path-length method

Compound `O` [water] + CCCC(=O)[O-].CC[NH2+]CC has a viscosity ([1]; 283.15 K) of 1.31 ± 0.02 mPa·s, a viscosity ([1]; 285.65 K) of 1.23 ± 0.02 mPa·s and a viscosity ([1]; 288.15 K) of 1.15 ± 0.02 mPa·s. It also gave a viscosity ([1]; 290.65 K) of 1.08 ± 0.02 mPa·s, a viscosity ([1]; 293.15 K) of 1.02 ± 0.02 mPa·s and a viscosity ([1]; 295.65 K) of 0.96 ± 0.02 mPa·s. The viscosity ([1]; 298.15 K) was 0.9 ± 0.02 mPa·s, the viscosity ([1]; 300.65 K) was 0.85 ± 0.02 mPa·s and the viscosity ([1]; 303.15 K) was 0.8 ± 0.02 mPa·s. It also gave a viscosity ([1]; 305.65 K) of 0.76 ± 0.02 mPa·s, a viscosity ([1]; 308.15 K) of 0.72 ± 0.02 mPa·s and a viscosity ([1]; 310.65 K) of 0.69 ± 0.02 mPa·s. For the same compound, the viscosity ([1]; 313.15 K) was 0.65 ± 0.02 mPa·s, the viscosity ([1]; 315.65 K) was 0.62 ± 0.02 mPa·s and the viscosity ([1]; 318.15 K) was 0.59 ± 0.02 mPa·s. It also gave a viscosity ([1]; 320.65 K) of 0.57 ± 0.02 mPa·s, a viscosity ([1]; 323.15 K) of 0.54 ± 0.02 mPa·s and a viscosity ([1]; 325.65 K) of 0.51 ± 0.02 mPa·s. The viscosity ([1]; 328.15 K) was 0.49 ± 0.02 mPa·s, the viscosity ([1]; 330.65 K) was 0.47 ± 0.02 mPa·s and the viscosity ([1]; 333.15 K) was 0.45 ± 0.02 mPa·s. The viscosity ([1]; 335.65 K) was 0.43 ± 0.02 mPa·s, the viscosity ([1]; 338.15 K) was 0.41 ± 0.02 mPa·s and the viscosity ([1]; 340.65 K) was 0.39 ± 0.02 mPa·s. The viscosity ([1]; 343.15 K) was 0.37 ± 0.02 mPa·s.
In the case of `O` [water], the viscosity ([2]; 283 K) is reported as 1.31 ± 0.01 mPa·s, the mass density ([2]; 283 K) is reported as 999.72 ± 0.05 kg/m3 and the viscosity ([2]; 286 K) is reported as 1.23 ± 0.01 mPa·s. It also gave a speed of sound ([2]; 286 K) of 1457 ± 1 m/s, a mass density ([2]; 286 K) of 999.46 ± 0.05 kg/m3 and a viscosity ([2]; 288 K) of 1.15 ± 0.01 mPa·s. For the same compound, the viscosity ([2]; 291 K) was 1.08 ± 0.01 mPa·s, the speed of sound ([2]; 291 K) was 1475 ± 1 m/s and the mass density ([2]; 291 K) was 998.69 ± 0.05 kg/m3. The viscosity ([2]; 293 K) was 1.02 ± 0.01 mPa·s, the viscosity ([2]; 296 K) was 0.96 ± 0.01 mPa·s and the speed of sound ([2]; 296 K) was 1490 ± 1 m/s. The mass density ([2]; 296 K) was 997.66 ± 0.05 kg/m3, the viscosity ([2]; 298 K) was 0.9 ± 0.01 mPa·s and the viscosity ([2]; 301 K) was 0.85 ± 0.01 mPa·s. For the same compound, the speed of sound ([2]; 301 K) was 1503 ± 1 m/s, the mass density ([2]; 301 K) was 996.37 ± 0.05 kg/m3 and the viscosity ([2]; 303 K) was 0.8 ± 0.01 mPa·s. For the same compound, the viscosity ([2]; 306 K) was 0.76 ± 0.01 mPa·s, the speed of sound ([2]; 306 K) was 1515 ± 1 m/s and the mass density ([2]; 306 K) was 994.87 ± 0.05 kg/m3. The viscosity ([2]; 308 K) was 0.72 ± 0.01 mPa·s, the viscosity ([2]; 311 K) was 0.69 ± 0.01 mPa·s and the speed of sound ([2]; 311 K) was 1525 ± 1 m/s. The mass density ([2]; 311 K) was 993.15 ± 0.06 kg/m3, the viscosity ([2]; 313 K) was 0.65 ± 0.01 mPa·s and the speed of sound ([2]; 313 K) was 1529 ± 1 m/s. It also gave a viscosity ([2]; 316 K) of 0.62 ± 0.01 mPa·s, a speed of sound ([2]; 316 K) of 1533 ± 1 m/s and a mass density ([2]; 316 K) of 991.23 ± 0.06 kg/m3. For the same compound, the viscosity ([2]; 318 K) was 0.59 ± 0.01 mPa·s, the speed of sound ([2]; 318 K) was 1537 ± 1 m/s and the viscosity ([2]; 321 K) was 0.57 ± 0.01 mPa·s. For the same compound, the speed of sound ([2]; 321 K) was 1540 ± 1 m/s, the mass density ([2]; 321 K) was 989.15 ± 0.06 kg/m3 and the viscosity ([2]; 323 K) was 0.54 ± 0.01 mPa·s. For the same compound, the mass density ([2]; 323 K) was 988.03 ± 0.06 kg/m3.
